Values after ≈ are worked out from the molar mass of the structure shown.

We go through 1 compound from patent US8658226B2, “Agent having anti-Helicobacter pylori activity” (Japan Royal Jelly Co., Ltd., priority 2008, dated 2014).

The test system of the test is Helicobacter pylori. As to the kind of experiment: Measurement of anti-Helicobacter pylori activity by the paper disk method. It counts as cell-based. As for the experimental part:
Measurement of anti-Helicobacter pylori activity was carried out by the paper disk method using Helicobacter pylori agar culture medium (Pore […] Chemical). After coating Helicobacter pylori over the entire surface of this medium, a thick circular piece of filter paper (Advantec) having a diameter of 8 mm impermeated with 60 μl of extract was placed on the medium followed by culturing in the presence of 10% carbon dioxide gas. After culturing for 3 to 4 days, the size of the zone of inhibition of Helicobacter pylori growth formed around the filter paper was observed. A piece of filter paper impermeated with chloramphenicol (CM, 100 μg/ml) was also placed on the medium as a positive control, while a piece of filter paper impermeated with PBS was placed on the medium as a negative control.

As for `O=C(N[C@H](CO)[C@H](O)c1ccc([N+](=O)[O-])cc1)C(Cl)Cl` [chloramphenicol], the MIC (Helicobacter pylori, assumed from paper disk method, read-out: minimum inhibitory concentration (MIC)) is about 5 µg/mL (≈ 15.5 µM). The “antibacterial activity of chloramphenicol” value (at a concentration of 5 μg/ml) is listed as “essentially no longer observed”.
